# Results as given in ChEMBL document CHEMBL4339221, “Investigating the Anticancer Activity of Isatin/Dihydropyrazole Hybrids” (ACS Med Chem Lett, 2019).
# Assays:
# [1] = Antiproliferative activity against human IGR-39 cells assessed as reduction in cell growth incubated for 72 hrs by MTT assay; format: functional, cell-based; conditions: IGR-39, 72 h
# MDA-MB-231 = test: Antiproliferative activity against human MDA-MB-231 cells assessed as cell growth at 10 uM incubated for 72 hrs by MTT assay relative to untreated control; format: functional; conditions: MDA-MB-231, 72 h, read-out: Activity
# [2] = Antiproliferative activity against human NHFB cells assessed as reduction in cell growth incubated for 72 hrs by MTT assay; format: cell-based
# U-87 MG [3] = test: Antiproliferative activity against human U87 cells assessed as reduction in cell growth incubated for 72 hrs by MTT assay; format: functional, cell-based, U-87MG ATCC
# SK-OV-3 [4] = test: Antiproliferative activity against human SKOV3 cells assessed as cell growth at 10 uM incubated for 72 hrs by MTT assay relative to untreated control; format: functional; conditions: SK-OV-3, 72 h, read-out: Activity
# MCF7 [5] = test: Antiproliferative activity against human MCF7 cells assessed as cell growth at 10 uM incubated for 72 hrs by MTT assay relative to untreated control; format: functional; conditions: MCF7, 72 h, read-out: Activity
# NCI-H1299 [6] = test: Antiproliferative activity against human NCI-H1299 cells assessed as cell growth at 10 uM incubated for 72 hrs by MTT assay relative to untreated control; format: functional; conditions: NCI-H1299, 72 h, read-out: Activity
# BT-474 [7] = test: Antiproliferative activity against human BT474 cells assessed as cell growth at 10 uM incubated for 72 hrs by MTT assay relative to untreated control; format: functional; conditions: BT-474, 72 h, read-out: Activity
# [8] = Antiproliferative activity against human IGR-39 cells assessed as cell growth at 10 uM incubated for 72 hrs by MTT assay relative to untreated control; format: functional; conditions: IGR-39, 72 h, read-out: Activity
# BXPC-3 [9] = test: Antiproliferative activity against human BxPC3 cells assessed as cell growth at 10 uM incubated for 72 hrs by MTT assay relative to untreated control; format: functional; conditions: BXPC-3, 72 h, read-out: Activity
# BT-474 [10] = test: Antiproliferative activity against human BT474 cells assessed as reduction in cell growth incubated for 72 hrs by MTT assay; format: functional, cell-based; conditions: BT-474, 72 h
# U-87 MG [11] = test: Antiproliferative activity against human U87 cells assessed as cell growth at 10 uM incubated for 72 hrs by MTT assay relative to untreated control; format: functional, U-87MG ATCC; conditions: read-out: Activity
# A549 [12] = test: Antiproliferative activity against human A549 cells assessed as reduction in cell growth incubated for 72 hrs by MTT assay; format: functional, cell-based; conditions: A549, 72 h
# MCF7 [13] = test: Antiproliferative activity against human MCF7 cells assessed as reduction in cell growth incubated for 72 hrs by MTT assay; format: functional, cell-based; conditions: MCF7, 72 h
# BXPC-3 [14] = test: Antiproliferative activity against human BxPC3 cells assessed as reduction in cell growth incubated for 72 hrs by MTT assay; format: functional, cell-based; conditions: BXPC-3, 72 h
# NCI-H1299 [15] = test: Antiproliferative activity against human NCI-H1299 cells assessed as reduction in cell growth incubated for 72 hrs by MTT assay; format: functional, cell-based; conditions: NCI-H1299, 72 h
# A549 [16] = test: Antiproliferative activity against human A549 cells assessed as cell growth at 10 uM incubated for 72 hrs by MTT assay relative to untreated control; format: functional; conditions: A549, 72 h, read-out: Activity
# [17] = Antiproliferative activity against human NHFB cells assessed as cell growth at 10 uM incubated for 72 hrs by MTT assay relative to untreated control; format: cell-based; conditions: read-out: Activity
# [18] = Induction of apoptosis in human IGR-39 cells at 0.5 times antiproliferative EC50 incubated for 72 hrs by Hoechst 33342 and propidium iodide staining based inverted fluorescent microscopy relative to untreated control; format: functional
# [19] = Induction of necrosis in human IGR-39 cells at 0.5 times antiproliferative EC50 incubated for 72 hrs by Hoechst 33342 and propidium iodide staining based inverted fluorescent microscopy relative to untreated control; format: functional
# U-87 MG [20] = test: Induction of apoptosis in human U87 cells at 0.5 times antiproliferative EC50 incubated for 72 hrs by Hoechst 33342 and propidium iodide staining based inverted fluorescent microscopy relative to untreated control; format: functional, U-87MG ATCC
# U-87 MG [21] = test: Induction of necrosis in human U87 cells at 0.5 times antiproliferative EC50 incubated for 72 hrs by Hoechst 33342 and propidium iodide staining based inverted fluorescent microscopy relative to untreated control; format: functional, U-87MG ATCC
# A549 [22] = test: Induction of necrosis in human A549 cells at 0.5 times antiproliferative EC50 incubated for 72 hrs by Hoechst 33342 and propidium iodide staining based inverted fluorescent microscopy relative to untreated control; format: functional
# A549 [23] = test: Induction of apoptosis in human A549 cells at 0.5 times antiproliferative EC50 incubated for 72 hrs by Hoechst 33342 and propidium iodide staining based inverted fluorescent microscopy relative to untreated control; format: functional
# SK-OV-3 [24] = test: Antiproliferative activity against human SKOV3 cells assessed as reduction in cell growth incubated for 72 hrs by MTT assay; format: functional, cell-based; conditions: SK-OV-3, 72 h
EC50 (U-87 MG [3]) [µM],EC50 (MCF7 [13]) [µM],EC50 (BXPC-3 [14]) [µM],Compound,EC50 [1] [µM],growth at 10 µM (MDA-MB-231) [%],growth at 10 µM (SK-OV-3 [4]) [%],growth at 10 µM (MCF7 [5]) [%],growth at 10 µM (NCI-H1299 [6]) [%],growth at 10 µM (BT-474 [7]) [%],growth at 10 µM [8] [%],growth at 10 µM (BXPC-3 [9]) [%],growth at 10 µM (U-87 MG [11]) [%],growth at 10 µM (A549 [16]) [%],"viability at 72 h, 10 µM [17] [%]",other results
0.67,0.27,0.1,COc1ccc(C2CC(c3ccc4ccccc4c3)=NN2C2=NC(=O)/C(=C3/C(=O)Nc4ccc(OC)cc43)S2)cc1 (configuration not stated),0.5,9.67,41.4,3.64,9.85,49.1,1.2,5.13,1.13,3.93,13.3,EC50 [2]: 0.27 µM; EC50 (BT-474 [10]): 0.24 µM; EC50 (A549 [12]): 0.73 µM; EC50 (NCI-H1299 [15]): 0.15 µM
0.23,0.31,0.1,COc1ccc(C2CC(c3ccc4ccccc4c3)=NN2C2=NC(=O)/C(=C3/C(=O)Nc4ccc(C)cc43)S2)cc1 (configuration not stated),0.14,10.8,66.6,4.81,19.3,40.2,0.46,5.02,14.2,6.21,11.8,Activity [18]: 13.5 - 27%; EC50 [2]: 0.15 µM; Activity [19]: <1%; Activity (U-87 MG [20]): 13.5 - 27%; Activity (U-87 MG [21]): <1%; EC50 (A549 [12]): 0.18 µM; Activity (A549 [22]): <1%; Activity (A549 [23]): 13.5 - 27%
–,–,–,COc1ccc(C2CC(c3cccs3)=NN2C2=NC(=O)/C(=C3/C(=O)Nc4ccc(F)cc43)S2)cc1 (configuration not stated),–,81.5,94.1,112,68.3,102,28.1,77.2,14.4,63.6,20,–
5.76,–,–,COc1ccc(C2CC(c3cccs3)=NN2C2=NC(=O)/C(=C3/C(=O)Nc4ccc(Cl)cc43)S2)cc1 (configuration not stated),2.97,80.4,56.6,112,117,86.8,0.9,59.6,4.35,22.4,47.5,–
–,–,–,COc1ccc(C2CC(c3cccs3)=NN2C2=NC(=O)/C(=C3/C(=O)Nc4c(Br)cccc43)S2)cc1 (configuration not stated),–,73.9,88,126,89.2,94.3,101,53.7,57,86.1,46.3,–
–,–,–,COc1ccc(C2CC(c3ccc4ccccc4c3)=NN2C2=NC(=O)/C(=C3/C(=O)Nc4c(F)cccc43)S2)cc1 (configuration not stated),–,87.3,67.7,118,60.5,112,109,73.1,86.2,86.5,89.4,–
–,0.96,2.5,CCN(CC)CCNC(=O)c1c(C)[nH]c(/C=C2\C(=O)Nc3ccc(F)cc32)c1C [SUNITINIB],–,–,–,–,–,–,–,–,–,–,–,EC50 [2]: 0.3 µM; EC50 (SK-OV-3 [24]): 1.36 µM; EC50 (BT-474 [10]): 0.9 µM; EC50 (NCI-H1299 [15]): 1.54 µM
–,–,–,COc1ccc(C2CC(c3cccs3)=NN2C2=NC(=O)/C(=C3/C(=O)Nc4ccc(C)cc43)S2)cc1 (configuration not stated),–,76.9,38.4,112,84,95,1.37,62.4,12.1,22.7,48.3,–
–,–,–,COc1ccc(C2CC(c3ccc4ccccc4c3)=NN2C2=NC(=O)/C(=C3/C(=O)Nc4c(C)cc(C)cc43)S2)cc1 (configuration not stated),–,73,26.6,120,87.8,62.2,63.4,44.9,64.2,43.8,55.6,–
–,–,–,COc1ccc(C2CC(c3ccc4ccccc4c3)=NN2C2=NC(=O)/C(=C3/C(=O)Nc4c(Br)cccc43)S2)cc1 (configuration not stated),–,68.2,89.9,102,81,88.2,98.6,55.3,96.7,94.2,47.3,–
–,–,–,COc1ccc(C2CC(c3cccs3)=NN2C2=NC(=O)/C(=C3/C(=O)Nc4c(C)cc(C)cc43)S2)cc1 (configuration not stated),–,111,79.9,114,120,103,117,72.3,126,104,80.3,–
0.38,0.07,0.06,COc1ccc(C2CC(c3ccc4ccccc4c3)=NN2C2=NC(=O)/C(=C3/C(=O)Nc4ccc(Cl)cc43)S2)cc1 (configuration not stated),0.33,6.87,6.69,3.81,9.76,24.2,1.3,5.62,1.59,3.84,14.4,Activity [18]: 13.5 - 27%; Activity [19]: <1%; Activity (U-87 MG [20]): 13.5 - 27%; EC50 (SK-OV-3 [24]): 0.06 µM; EC50 (BT-474 [10]): 0.09 µM; Activity (U-87 MG [21]): <1%; EC50 (A549 [12]): 0.34 µM; EC50 (NCI-H1299 [15]): 0.01 µM; Activity (A549 [22]): <1%; Activity (A549 [23]): 13.5 - 27%
–,–,–,COc1ccc(C2CC(c3cccs3)=NN2C2=NC(=O)/C(=C3/C(=O)Nc4ccc(OC)cc43)S2)cc1 (configuration not stated),–,99.3,49.5,120,85.9,98.4,98.6,67.6,44.9,62.5,64.4,–
